In ChEMBL document CHEMBL5550126, “Identification of naphthalimide-derivatives as novel PBD-targeted polo-like kinase 1 inhibitors with efficacy in drug-resistant lung cancer cells” (Eur J Med Chem, 2024):
pIC50, pKd: −log10 of the molar value. Active and inactive are the calls of the source. The calls are words filed in the database; no cut-off is given here.

Tests used:
[1] = molecular target: T1, Serine/threonine-protein kinase PLK1 (Homo sapiens, UniProt P53350); assay: Binding affinity to recombinant PLK1 (unknown origin) assessed as dissociation constant by SPR analysis
T-24 = assay: Anticancer activity against human T24 cells assessed as inhibition of cell growth incubated for 48 hrs by crystal violet staining based analysis; format: functional; settings: T-24, 48 h
SK-OV-3 = assay: Anticancer activity against human SK-OV-3 cells assessed as inhibition of cell growth incubated for 48 hrs by crystal violet staining based analysis; format: functional; settings: SK-OV-3, 48 h
MGC-803 = assay: Anticancer activity against human MGC-803 cells assessed as inhibition of cell growth incubated for 48 hrs by crystal violet staining based analysis; format: functional; settings: MGC-803, 48 h
A549 [2] = assay: Induction of cell cycle arrest at G2/M phase in human A549 cells at 0 to 15 uM measured after 48 hrs by RNase A/PI staining based flow cytometry analysis; format: functional; settings: dose 0-15 µM
A549/CDDP [3] = assay: Anticancer activity against human A549/DDP cells assessed as inhibition of cell growth incubated for 48 hrs by crystal violet staining based analysis; format: functional
[4] = molecular target: T1, Serine/threonine-protein kinase PLK1; assay: Binding affinity to recombinant PLK1 (unknown origin) assessed as signal attenuation at 200 uM by NMR analysis
[5] = molecular target: T1, Serine/threonine-protein kinase PLK1; assay: Binding affinity to PLK1 in human A549/DDP intact cells assessed as thermal stabilization at 3 uM at 44 to 64 degreeC incubated for 2 hrs by CETSA; format: cell-based
[6] = molecular target: T1, Serine/threonine-protein kinase PLK1; assay: Binding affinity to PLK1 in human A549/DDP cell lysates assessed as thermal stabilization at 20 uM at 44 to 64 degreeC incubated for 2 hrs by CETSA; format: subcellular; settings: Lysate
[7] = molecular target: T1, Serine/threonine-protein kinase PLK1; assay: Binding affinity to FLAG-tagged PLK1 kinase region (unknown origin) transfected in human A549 cells at 10 uM incubated for 1 hr by coimmunoprecipitation-MS analysis; format: cell-based
A549/CDDP [8] = assay: Effect on c-Myc protein expression in human A549/DDP cells assessed as effect on protein abundance at 0 to 6 uM measured after 48 hrs by Western blot analysis; format: functional, cell-based; settings: dose 0-6 µM
A549/CDDP [9] = assay: Effect on cyclin A2 protein expression in human A549/DDP cells assessed as effect on protein abundance at 0 to 6 uM measured after 48 hrs by Western blot analysis; format: functional, cell-based; settings: dose 0-6 µM
A549/CDDP [10] = assay: Effect on p-CDK2 protein expression in human A549/DDP cells assessed as effect on protein abundance at 0 to 6 uM measured after 48 hrs by Western blot analysis; format: functional, cell-based; settings: dose 0-6 µM
A549/CDDP [11] = assay: Effect on p21 protein expression in human A549/DDP cells assessed as effect on protein abundance at 0 to 6 uM measured after 48 hrs by Western blot analysis; format: functional, cell-based; settings: dose 0-6 µM
A549 [12] = assay: Disruption of PLK1-PRC1 protein protein interaction in human A549 cells assessed as reduction in amount of PLK1 captured by PRC1 antibody at 6 uM measured after 48 hrs by Co-IP analysis; format: cell-based
A549 [13] = assay: Induction of mitotic catastrophe in human A549 cells assessed as appearance of multinucleated cells during mitosis at 1.5 uM measured after 48 hrs by immunostaining based laser confocal microscopic analysis; format: functional, cell-based
A549 [14] = assay: Induction of mitotic catastrophe in human A549 cells assessed as downregulation of CDK1-cyclin B1 complex protein expression at 1.5 to 6 uM measured after 48 hrs by Western blot analysis; format: functional, cell-based; settings: dose 1.5-6 µM
[15] = GSH reactivity of compound in PBS assessed as increase in fluorogenic response at 5 uM measured after 0 to 24 hrs by fluorescence spectrophotometer; format: physicochemical; settings: buffer, time 0-24 hrs
[16] = GSH reactivity of compound in PBS assessed as increase in fluorogenic response at 0 to 800 uM measured after 60 mins by fluorescence spectrophotometer; format: physicochemical; settings: buffer, 1 h, dose 0-800 µM
[17] = Binding affinity to cysteine in PBS assessed as increase in fluorogenic response at 5 uM by UV lamp irradiation/fluorescence spectrophotometer
[18] = GSH reactivity in human A549/DDP cells assessed as increase in fluorescence intensity measured after 48 hrs; format: ADME, cell-based; settings: dose 0-9 µM
A549/CDDP [19] = assay: Antitumor activity against human A549/DDP cells assessed as male BALB/c nude mouse assessed as tumor regression at 50 mg/kg, ip administered every 2 days for 32 days and measured 3 times a week; format: functional, organism-based; settings: time 32.0 day
A549/CDDP [20] = assay: Antitumor activity against human A549/DDP cells assessed as male BALB/c nude mouse assessed as tumor growth inhibition at 30 mg/kg, ip administered every 2 days for 32 days and measured 3 times a week relative to control; format: functional; settings: 768 h, time 32 day, read-out: TGI
[21] = Toxicity in male BALB/c nude mouse xenografted with human A549/DDP cells assessed as reduction in body weight at 30 to 50 mg/kg, ip administered every 2 days for 32 days and measured 3 times a week; format: organism-based, A549/CDDP; settings: in vivo, 768 h, dose 30-50 mg/kg, time 32 day
[22] = Toxicity in male BALB/c nude mouse xenografted with human A549/DDP cells assessed as change in lung index at 30 to 50 mg/kg, ip administered every 2 days for 32 days; format: organism-based, A549/CDDP; settings: in vivo, 768 h, dose 30-50 mg/kg, time 32 day
[23] = Toxicity in male BALB/c nude mouse xenografted with human A549/DDP cells assessed as lung damage at 30 to 50 mg/kg, ip administered every 2 days for 32 days by H and E staining based analysis; format: organism-based, A549/CDDP; settings: in vivo, 768 h, dose 30-50 mg/kg, time 32 day
[24] = Toxicity in male BALB/c nude mouse xenografted with human A549/DDP cells assessed as kidney damage at 30 to 50 mg/kg, ip administered every 2 days for 32 days by H and E staining based analysis; format: organism-based, A549/CDDP; settings: in vivo, 768 h, dose 30-50 mg/kg, time 32 day
[25] = Toxicity in male BALB/c nude mouse xenografted with human A549/DDP cells assessed as liver damage at 30 to 50 mg/kg, ip administered every 2 days for 32 days by H and E staining based analysis; format: organism-based, A549/CDDP; settings: in vivo, 768 h, dose 30-50 mg/kg, time 32 day
[26] = Antitumor activity against human gefitinib resistant NCI-H1975 cells xenografted in male BALB/c nude mouse assessed as inhibition of tumor growth at 30 mg/kg, po administered every 2 days for 20 days and measured 3 times a week relative to control; format: functional; settings: gefitinib resistant NCI-H1975 cell, 480 h, time 20 day, read-out: TGI
[27] = Toxicity in male BALB/c nude mouse xenografted with human gefitinib resistant NCI-H1975 cells assessed as reduction in body weight at 30 mg/kg, po administered every 2 days for 20 days and measured 3 times a week; format: organism-based; settings: in vivo, 480 h, time 20 day
[28] = Toxicity in male BALB/c nude mouse xenografted with human gefitinib resistant NCI-H1975 cells assessed as heart damage at 30 mg/kg, po administered every 2 days for 20 days and measured 3 times a week by H and E staining based analysis; format: organism-based; settings: in vivo, 480 h, time 20 day
[29] = Toxicity in male BALB/c nude mouse xenografted with human gefitinib resistant NCI-H1975 cells assessed as kidney damage at 30 mg/kg, po administered every 2 days for 20 days and measured 3 times a week by H and E staining based analysis; format: organism-based; settings: in vivo, 480 h, time 20 day
[30] = Toxicity in male BALB/c nude mouse xenografted with human gefitinib resistant NCI-H1975 cells assessed as liver damage at 30 mg/kg, po administered every 2 days for 20 days and measured 3 times a week by H and E staining based analysis; format: organism-based; settings: in vivo, 480 h, time 20 day

T1 sequence (P53350 whole entry): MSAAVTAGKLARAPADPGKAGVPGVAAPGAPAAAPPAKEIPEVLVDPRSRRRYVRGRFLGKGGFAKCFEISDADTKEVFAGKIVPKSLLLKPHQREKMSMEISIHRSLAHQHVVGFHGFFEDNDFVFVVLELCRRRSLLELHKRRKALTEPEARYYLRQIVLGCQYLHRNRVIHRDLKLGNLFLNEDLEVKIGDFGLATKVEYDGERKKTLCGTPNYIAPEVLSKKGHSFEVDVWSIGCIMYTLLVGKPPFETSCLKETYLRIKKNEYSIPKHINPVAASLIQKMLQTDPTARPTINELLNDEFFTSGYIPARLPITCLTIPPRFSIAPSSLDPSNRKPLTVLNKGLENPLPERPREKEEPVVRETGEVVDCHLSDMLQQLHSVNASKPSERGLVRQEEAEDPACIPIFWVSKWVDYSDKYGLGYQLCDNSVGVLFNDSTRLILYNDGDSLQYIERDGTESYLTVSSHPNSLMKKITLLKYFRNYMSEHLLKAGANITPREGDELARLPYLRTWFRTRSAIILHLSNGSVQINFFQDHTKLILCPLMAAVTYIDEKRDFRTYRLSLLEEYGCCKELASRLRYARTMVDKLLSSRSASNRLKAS

Structure (SMILES): CN(C)CCN1C(=O)c2cccc3c(S(=O)(=O)NCc4ccc(F)cc4)ccc(c23)C1=O
- pKd [1]: 6.54
- pIC50 (T-24): 5.54
- pIC50 (SK-OV-3): 5.55
- pIC50 (MGC-803): 5.49
- Activity (A549 [2]): Active
- pIC50 (A549/CDDP [3]): 5.58
- Activity [4]: Active
- Activity [5]: Active
- Activity [6]: Active
- Activity [7]: inactive
- Activity (A549/CDDP [8]): Active
- Activity (A549/CDDP [9]): Active
- Activity (A549/CDDP [10]): Active
- Activity (A549/CDDP [11]): Active
- Activity (A549 [12]): Active
- Activity (A549 [13]): Active
- Activity (A549 [14]): Active
- Drug metabolism [15]: Metabolite_Detected
- Drug metabolism [16]: Metabolite_Detected
- Activity [17]: inactive
- Drug metabolism [18]: Metabolite_Detected
- Activity (A549/CDDP [19]): Active
- inhibition in vivo at 30 mg/kg (A549/CDDP [20]): 42%
- Activity [21]: Non-Toxic
- Activity [22]: Non-Toxic
- Activity [23]: Non-Toxic
- Activity [24]: Non-Toxic
- Activity [25]: Non-Toxic
- inhibition in vivo at 30 mg/kg [26]: 44%
- Activity [27]: Non-Toxic
- Activity [28]: Non-Toxic
- Activity [29]: Non-Toxic
- Activity [30]: Non-Toxic
